Five molecules from patent US12661410B2, “Compounds for targeted degradation of RET” (C4 Therapeutics, Inc., priority 2020, dated 2026) can be followed below.

Molecules are shown by their SMILES. Residue numbers refer to the chain shown, from its start. Bounds are passed on as bounds.

The target in one experiment is T1, RET (658-1114) (Homo sapiens, UniProt P07949).
T1 construct: 658-1114; expressed in transfected cells; host or cells: 293T.144 (293T cells, generated in-house)
T1 sequence (P07949 658-1114): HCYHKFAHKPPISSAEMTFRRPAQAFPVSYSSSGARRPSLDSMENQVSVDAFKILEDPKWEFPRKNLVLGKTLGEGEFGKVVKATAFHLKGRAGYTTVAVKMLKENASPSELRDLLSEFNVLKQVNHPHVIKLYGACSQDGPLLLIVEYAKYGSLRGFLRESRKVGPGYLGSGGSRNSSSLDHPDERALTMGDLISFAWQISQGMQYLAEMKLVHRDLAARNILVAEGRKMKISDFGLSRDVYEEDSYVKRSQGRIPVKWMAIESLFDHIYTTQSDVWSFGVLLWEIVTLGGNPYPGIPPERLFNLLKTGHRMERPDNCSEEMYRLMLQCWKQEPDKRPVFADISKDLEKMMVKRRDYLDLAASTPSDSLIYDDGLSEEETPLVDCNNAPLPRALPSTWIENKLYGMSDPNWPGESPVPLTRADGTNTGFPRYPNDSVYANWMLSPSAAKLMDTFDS
The experiment is described as follows: HiBiT-Degradation, RET wild-type degradation assay (Nano-Glo HiBiT Lytic), 293T.144 cells. Conditions: for Emax / DC50: 6.0 hours; for Emax: % remaining protein, read-out: 293T.144 RET (658-1114) 6.0 hours (Emax); for DC50: half-maximal degradation concentration, read-out: 293T.144 RET (658-1114) 6.0 hours (DC50). In kind it is cell-based. In short, it runs like this:
(§1)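 Cells were plated and dosed with an 11-point half-log series (highest 10 μM) in duplicate. After 6 hours they were lysed with HiBiT lytic detection reagent and luminescence measured. DC50 and percent remaining protein (Emax) came from the dose-response curves.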

The target of another experiment is T2, RET(KD: 658-1114 G810R) (Homo sapiens, UniProt P07949, G810R).
T2 construct: 658-1114; expressed in transfected cells; host or cells: 293T.165 (293T cells, generated in-house)
T2 sequence (P07949 658-1114 G810R): T1 sequence (P07949 658-1114) with G153R
The experiment is described as follows: HiBiT-Degradation, RET G810R degradation assay (Nano-Glo HiBiT Lytic), 293T.165 cells. In kind it is cell-based. To be noted: for Emax / DC50: 6.0 hours; for Emax: % remaining protein, read-out: 293T.165 RET(KD: 658-1114 G810R) 6.0 hours (Emax); for DC50: half-maximal degradation concentration, read-out: 293T.165 RET(KD: 658-1114 G810R) 6.0 hours (DC50). In short, it runs like this:
as §1

As to `CCC1(C(=O)NC[C@H]2C[C@@H](F)C2)CCN(c2ccc(-c3nc(-c4cnn([C@H]5CC[C@H](N6CCN(c7ccc(NC8CCC(=O)NC8=O)cc7F)CC6)CC5)c4)cn4ncc(C#N)c34)cn2)CC1` (stereo partly drawn) [Compound 210, 1-[5-[3-cyano-6-[1-[4-[4-[4-[(2,6-dioxo-3-piperidyl)amino]-2-fluoro-phenyl]piperazin-1-yl]cyclohexyl]pyrazol-4-yl]pyrazolo[1,5-a]pyrazin-4-yl]-2-pyridyl]-4-ethyl-N-[(3-fluorocyclobutyl)methyl]piperidine-4-carboxamide], on RET (658-1114), the “293T.144 RET (658-1114) 6.0 hours (IP) [nM]” value (“293T.144 RET” below) is recorded as “++++ (<50 nM = ++++)”, the maximum response (Emax) was less than 30% and the DC50 was less than 50 nM. Also, at RET(KD: 658-1114 G810R), the “293T.165 RET(KD: 658-1114 G810R) 6.0 hours (IP) [nM]” value is “++++ (<50 nM = ++++)”, the Emax was less than 30% and the DC50 is less than 100 nM.

As to `N#Cc1cnn2cc(-c3cnn([C@H]4CC[C@H](N5CCN(c6c(F)cc(NC7CCC(=O)NC7=O)cc6F)CC5)CC4)c3)nc(-c3ccc(N4CC5CC(C4)N5CC4CCC(F)(F)CC4)nc3)c12` (stereo partly drawn) [Compound 214, 4-[6-[6-[(4,4-difluorocyclohexyl)methyl]-3,6-diazabicyclo[3.1.1]heptan-3-yl]-3-pyridyl]-6-[1-[4-[4-[4-[(2,6-dioxo-3-piperidyl)amino]-2,6-difluoro-phenyl]piperazin-1-yl]cyclohexyl]pyrazol-4-yl]pyrazolo[1,5-a]pyrazine-3-carbonitrile], at RET (658-1114), the “293T.144 RET” value is reported as “++++ (<50 nM = ++++)”, the Emax was less than 30% and the DC50 was less than 50 nM. Also, at RET(KD: 658-1114 G810R), the “293T.165 RET(KD: 658-1114 G810R) 6.0 hours (IP) [nM]” value is given as “+++ (<100 nM = +++)”, the Emax is less than 30% and the DC50 was less than 100 nM.

On to `COc1ccc(CC2(O)CCN(c3ccc(-c4nc(-c5cnn([C@H]6CC[C@H](N7CCN(c8cc(OC)c(NC9CCC(=O)NC9=O)cc8F)CC7)CC6)c5)cn5ncc(C#N)c45)cn3)CC2)nc1` (stereo partly drawn) [Compound 215, 6-[1-[4-[4-[4-[(2,6-dioxo-3-piperidyl)amino]-2-fluoro-5-methoxy-phenyl]piperazin-1-yl]cyclohexyl]pyrazol-4-yl]-4-[6-[4-hydroxy-4-[(5-methoxy-2-pyridyl)methyl]-1-piperidyl]-3-pyridyl]pyrazolo[1,5-a]pyrazine-3-carbonitrile], for which, on RET (658-1114), the “293T.144 RET” value is “++++ (<50 nM = ++++)”, the Emax is less than 30% and the DC50 is less than 50 nM. Moreover, on RET(KD: 658-1114 G810R), the “293T.165 RET(KD: 658-1114 G810R) 6.0 hours (IP) [nM]” value is recorded as “++++ (<50 nM = ++++)”, the Emax was less than 30% and the DC50 was less than 50 nM.

For the molecule `COc1ccc(CC2(C(=O)NC(C)C)CCN(c3ccc(-c4nc(-c5cnn([C@H]6CC[C@H](N7CCN(c8cc(OC)c(NC9CCC(=O)NC9=O)cc8F)CC7)CC6)c5)cn5ncc(C#N)c45)cn3)CC2)nc1` (stereo partly drawn) [Compound 216, 1-[5-[3-cyano-6-[1-[4-[4-[4-[(2,6-dioxo-3-piperidyl)amino]-2-fluoro-5-methoxy-phenyl]piperazin-1-yl]cyclohexyl]pyrazol-4-yl]pyrazolo[1,5-a]pyrazin-4-yl]-2-pyridyl]-N-isopropyl-4-[(5-methoxy-2-pyridyl)methyl]piperidine-4-carboxamide], on RET (658-1114), the “293T.144 RET” value is “++++ (<50 nM = ++++)”, the Emax was less than 30% and the DC50 is less than 50 nM. For the same molecule, at RET(KD: 658-1114 G810R), the “293T.165 RET(KD: 658-1114 G810R) 6.0 hours (IP) [nM]” value is listed as “+++ (<100 nM = +++)”, the Emax is less than 30% and the DC50 is less than 100 nM.

On to `COc1cc(N2CCN([C@H]3CC[C@H](n4cc(-c5cn6ncc(C#N)c6c(-c6ccc(N7CC8CC(C7)N8Cc7ccccc7S(C)(=O)=O)nc6)n5)cn4)CC3)CC2)c(F)cc1NC1CCC(=O)NC1=O` (stereo partly drawn) [Compound 217, 6-[1-[4-[4-[4-[(2,6-dioxo-3-piperidyl)amino]-2-fluoro-5-methoxy-phenyl]piperazin-1-yl]cyclohexyl]pyrazol-4-yl]-4-[6-[6-[(2-methylsulfonylphenyl)methyl]-3,6-diazabicyclo[3.1.1]heptan-3-yl]-3-pyridyl]pyrazolo[1,5-a]pyrazine-3-carbonitrile], for which, at RET (658-1114), the “293T.144 RET” value is reported as “++++ (<50 nM = ++++)”, the Emax is less than 30% and the DC50 is less than 50 nM. For the same molecule, at RET(KD: 658-1114 G810R), the “293T.165 RET(KD: 658-1114 G810R) 6.0 hours (IP) [nM]” value is listed as “++++ (<50 nM = ++++)”, the Emax was less than 30% and the DC50 was less than 100 nM.
